Source: the supplement of paper PMC10307832

Legend:
Assay in all cases: relative viability (nuclei count vs DMSO), 5 days (fraction); higher = more cells survive
XMD14-99 + Phenformin = compound: CN1CCN(CC1)C2=CC(=C(C=C2)NC3=NC(=C(S3)C(=O)C4=C(C=CC=C4Cl)Cl)N)OC [XMD14-99] + N=C(N)NC(=N)NCCc1ccccc1 [Phenformin] (partner 250 µM)
How it was run: (§1)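 Relative viability equals treated-well nuclei counts divided by vehicle-well nuclei counts. Counts came from 4× images of lung cancer cell lines grown in 1536-well plates for 5 days after pin-tool dosing on the day after seeding. Dosing used one drug alone or a fixed anchor-drug dose plus five library-drug doses (not always all listed) in √10 steps, and values are medians of duplicate plates.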

AZD1208 + Luminespib = compound: N[C@@H]1CCCN(c2c(/C=C3\SC(=O)NC3=O)cccc2-c2ccccc2)C1 [AZD1208] + CCNC(=O)c1noc(-c2cc(C(C)C)c(O)cc2O)c1-c1ccc(CN2CCOCC2)cc1 [Luminespib] (partner 0.01 µM)
How it was run: as §1

AZD1208 + Alpelisib = compound: N[C@@H]1CCCN(c2c(/C=C3\SC(=O)NC3=O)cccc2-c2ccccc2)C1 [AZD1208] + Cc1nc(NC(=O)N2CCC[C@H]2C(N)=O)sc1-c1ccnc(C(C)(C)C(F)(F)F)c1 [Alpelisib] (partner 2 µM)
How it was run: as §1

XMD14-99 + Navitoclax = compound: CN1CCN(CC1)C2=CC(=C(C=C2)NC3=NC(=C(S3)C(=O)C4=C(C=CC=C4Cl)Cl)N)OC [XMD14-99] + CC1(C)CCC(c2ccc(Cl)cc2)=C(CN2CCN(c3ccc(C(=O)NS(=O)(=O)c4ccc(N[C@H](CCN5CCOCC5)CSc5ccccc5)c(S(=O)(=O)C(F)(F)F)c4)cc3)CC2)C1 [Navitoclax] (partner 0.5 µM)
How it was run: as §1

Cell Line | relative viability (XMD14-99 + Phenformin; first compound 0.08 µM) | relative viability (XMD14-99 + Phenformin; first compound 0.8 µM) | relative viability (XMD14-99 + Phenformin; first compound 2.53 µM) | relative viability (XMD14-99 + Phenformin; first compound 8 µM) | relative viability (AZD1208 + Luminespib; first compound 0.08 µM) | relative viability (AZD1208 + Luminespib; first compound 0.253 µM) | relative viability (AZD1208 + Luminespib; first compound 0.8 µM) | relative viability (AZD1208 + Luminespib; first compound 2.53 µM) | relative viability (AZD1208 + Luminespib; first compound 8 µM) | relative viability (AZD1208 + Alpelisib; first compound 0.08 µM) | relative viability (AZD1208 + Alpelisib; first compound 0.253 µM) | relative viability (AZD1208 + Alpelisib; first compound 0.8 µM) | relative viability (AZD1208 + Alpelisib; first compound 2.53 µM) | relative viability (AZD1208 + Alpelisib; first compound 8 µM) | relative viability (XMD14-99 + Navitoclax; first compound 0.08 µM) | relative viability (XMD14-99 + Navitoclax; first compound 0.8 µM) | relative viability (XMD14-99 + Navitoclax; first compound 2.53 µM) | relative viability (XMD14-99 + Navitoclax; first compound 8 µM)
SK-MES-1 | 0.644 | 0.647 | 0.575 | 0.475 | 0.771 | 0.736 | 0.607 | 0.689 | 0.531 | 0.697 | 0.856 | 0.628 | 0.704 | 0.683 | 1.26 | 1.18 | 1.05 | 0.821
SW 1573 | 0.357 | 0.386 | 0.413 | 0.363 | 0.292 | 0.429 | 0.198 | 0.152 | 0.208 | 0.65 | 0.705 | 0.595 | 0.505 | 0.592 | 0.961 | 1.15 | 1.05 | 0.765
